Our source for the inhibition values is publication PMC8271864, “Evaluation of Enzyme Inhibitory Activity of Flavonoids by Polydopamine-Modified Hollow Fiber-Immobilized Xanthine Oxidase” (Molecules, 2021).

T1 sequence (P80457 2-1332): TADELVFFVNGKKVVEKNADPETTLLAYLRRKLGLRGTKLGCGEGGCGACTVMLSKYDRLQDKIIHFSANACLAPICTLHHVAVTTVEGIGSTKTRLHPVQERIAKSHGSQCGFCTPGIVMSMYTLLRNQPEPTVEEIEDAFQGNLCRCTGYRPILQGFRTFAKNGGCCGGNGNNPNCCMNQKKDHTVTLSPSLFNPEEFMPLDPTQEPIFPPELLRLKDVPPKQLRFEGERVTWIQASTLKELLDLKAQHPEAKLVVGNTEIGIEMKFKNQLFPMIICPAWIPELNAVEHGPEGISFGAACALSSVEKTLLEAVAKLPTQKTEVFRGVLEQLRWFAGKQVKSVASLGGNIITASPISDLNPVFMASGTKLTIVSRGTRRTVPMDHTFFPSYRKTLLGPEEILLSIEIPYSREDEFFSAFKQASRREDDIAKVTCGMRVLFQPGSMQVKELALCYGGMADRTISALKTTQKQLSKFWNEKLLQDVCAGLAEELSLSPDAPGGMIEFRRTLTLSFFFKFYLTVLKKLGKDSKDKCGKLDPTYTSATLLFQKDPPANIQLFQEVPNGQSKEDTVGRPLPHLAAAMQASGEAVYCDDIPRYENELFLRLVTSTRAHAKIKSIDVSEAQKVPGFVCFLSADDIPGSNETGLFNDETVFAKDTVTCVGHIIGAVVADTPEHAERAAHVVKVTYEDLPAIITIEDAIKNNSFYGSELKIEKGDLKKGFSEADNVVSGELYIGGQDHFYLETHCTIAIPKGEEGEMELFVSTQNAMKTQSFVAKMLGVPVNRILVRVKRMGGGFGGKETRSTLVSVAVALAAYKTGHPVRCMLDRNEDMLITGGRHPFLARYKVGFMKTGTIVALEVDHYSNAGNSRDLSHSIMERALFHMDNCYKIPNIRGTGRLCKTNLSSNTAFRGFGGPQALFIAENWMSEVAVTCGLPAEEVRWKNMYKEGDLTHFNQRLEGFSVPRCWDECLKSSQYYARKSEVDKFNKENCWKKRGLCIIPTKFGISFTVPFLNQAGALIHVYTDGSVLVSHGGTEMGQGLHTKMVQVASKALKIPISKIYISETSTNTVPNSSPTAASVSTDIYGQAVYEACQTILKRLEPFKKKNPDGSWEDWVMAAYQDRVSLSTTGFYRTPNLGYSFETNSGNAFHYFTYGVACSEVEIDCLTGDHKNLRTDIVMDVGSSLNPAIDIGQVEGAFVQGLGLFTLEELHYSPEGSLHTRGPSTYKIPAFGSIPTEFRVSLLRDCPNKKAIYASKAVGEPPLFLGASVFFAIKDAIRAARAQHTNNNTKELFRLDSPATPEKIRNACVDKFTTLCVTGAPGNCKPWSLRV

This test has as its target T1, Xanthine oxidase (XOD) (Bos taurus, UniProt P80457).
T1 construct: gene XDH; commercial XOD immobilized on polydopamine-modified hollow fiber (XOD@PDA@HF)
Nature of the test: immobilized enzyme inhibition at […], hypoxanthine substrate, HPLC detection of uric acid. The test is classed as biochemical.
With `O=c1c(-c2ccc(O)cc2)coc2c([C@@H]3O[C@H](CO)[C@@H](O)[C@H](O)[C@H]3O)c(O)ccc12` [Puerarin], at 1000 µM the inhibition was 61.1 ± 6.26%.
As to `Oc1cc(O)c2c(c1)O[C@H](c1cc(O)c(O)c(O)c1)[C@H](O)C2` [Epigallocatechin], at 1000 µM the inhibition was 54.92 ± 0.41%.
For `O=c1c(O)c(-c2ccc(O)c(O)c2)oc2cc(O)cc(O)c12` [Quercetin] the value was 79.9 ± 3.5%; for `O=c1cc(-c2ccc(O)cc2)oc2cc(O)cc(O)c12` [Apigenin], 80.98 ± 0.64%.
